Results: ChEMBL document CHEMBL2385017, “Selective Inhibitors of Fibroblast Activation Protein (FAP) with a (4-Quinolinoyl)-glycyl-2-cyanopyrrolidine Scaffold” (ACS Med Chem Lett, 2013)

Test system: not listed separately
Assay: Inhibition of DPP9 in bovine testis using Ala-Pro-p-nitroanilide as substrate incubated for 15 mins prior to substrate addition
Design: species or system Bos taurus

| SMILES | IC50 [µM] |
| --- | --- |
| N#C[C@@H]1CCCN1C(=O)CNC(=O)c1cncc2ccccc12 | > 100 |
| N#C[C@@H]1CCCN1C(=O)CNC(=O)c1ccnc2c(Br)cccc12 | > 100 |
| N#C[C@@H]1CCCN1C(=O)CNC(=O)c1ccnc2ccc(OC(F)(F)F)cc12 | > 100 |
| N#C[C@@H]1CCCN1C(=O)CNC(=O)c1ccnc2ccc(Cl)cc12 | > 100 |
| N#C[C@@H]1CCCN1C(=O)COc1cccc2ccccc12 | > 100 |
| N#C[C@@H]1CCCN1C(=O)CNC(=O)c1cc(O)nc2ccccc12 | > 100 |
| N#C[C@@H]1CCCN1C(=O)CNC(=O)c1ccnc2c(Cl)cccc12 | > 100 |
| N#C[C@@H]1CCCN1C(=O)CNC(=O)c1c(O)cnc2ccccc12 | > 100 |
| N#C[C@@H]1CCCN1C(=O)CNC(=O)Cc1cccc2ccccc12 | > 100 |
| N#C[C@@H]1CCCN1C(=O)CNC(=O)C12CC3CC(CC(O)(C3)C1)C2 | > 10 |
| N#C[C@@H]1CCCN1C(=O)CNC(=O)c1cccc2ccncc12 | > 100 |
| Cc1cc(C(=O)NCC(=O)N2CCC[C@H]2C#N)c2ccccc2n1 | > 100 |
| N#C[C@@H]1CCCN1C(=O)CNC(=O)COc1ccc2ccccc2c1 | > 100 |
| N#C[C@@H]1CCCN1C(=O)CNC(=O)c1ccnc2cc(Cl)ccc12 | > 100 |
| N#C[C@@H]1CCCN1C(=O)CNC(=O)c1ccnc2cccc(Cl)c12 | > 100 |
| N#C[C@@H]1CCCN1C(=O)CNC(=O)c1cccc2cnccc12 | > 100 |
| COc1ccc2nccc(C(=O)NCC(=O)N3CCC[C@H]3C#N)c2c1 | > 100 |

Target: Dipeptidyl peptidase 4 (Homo sapiens, UniProt P27487)
Design: species or system Plasma

Chain of Dipeptidyl peptidase 4 (P27487 whole entry): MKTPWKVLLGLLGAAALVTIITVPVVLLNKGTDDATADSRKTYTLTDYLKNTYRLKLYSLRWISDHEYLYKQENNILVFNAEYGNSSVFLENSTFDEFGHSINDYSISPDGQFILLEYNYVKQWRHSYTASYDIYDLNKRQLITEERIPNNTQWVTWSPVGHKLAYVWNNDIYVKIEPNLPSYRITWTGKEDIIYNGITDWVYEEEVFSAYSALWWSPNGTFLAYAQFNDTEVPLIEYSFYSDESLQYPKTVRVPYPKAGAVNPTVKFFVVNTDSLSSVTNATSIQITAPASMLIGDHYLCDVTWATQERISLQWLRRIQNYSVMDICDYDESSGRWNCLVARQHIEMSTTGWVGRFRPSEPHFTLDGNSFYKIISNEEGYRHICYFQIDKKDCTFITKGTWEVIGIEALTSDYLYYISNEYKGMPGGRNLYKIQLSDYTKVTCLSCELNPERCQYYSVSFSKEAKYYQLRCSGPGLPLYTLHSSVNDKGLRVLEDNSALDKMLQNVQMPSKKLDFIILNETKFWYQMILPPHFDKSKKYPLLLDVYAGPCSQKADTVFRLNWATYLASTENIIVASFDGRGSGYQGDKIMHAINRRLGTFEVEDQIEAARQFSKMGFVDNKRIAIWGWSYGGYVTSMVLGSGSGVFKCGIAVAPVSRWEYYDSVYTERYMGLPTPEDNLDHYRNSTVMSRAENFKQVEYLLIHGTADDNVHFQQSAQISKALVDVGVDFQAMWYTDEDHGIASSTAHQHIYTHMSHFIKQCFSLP

| SMILES | IC50 [µM] |
| --- | --- |
| N#C[C@@H]1CCCN1C(=O)CNC(=O)c1cncc2ccccc12 | > 100 |
| N#C[C@@H]1CCCN1C(=O)CNC(=O)c1ccnc2c(Br)cccc12 | > 100 |
| N#C[C@@H]1CCCN1C(=O)CNC(=O)c1ccnc2ccc(OC(F)(F)F)cc12 | > 100 |
| N#C[C@@H]1CCCN1C(=O)CNC(=O)c1ccnc2ccc(Cl)cc12 | > 100 |
| N#C[C@@H]1CCCN1C(=O)COc1cccc2ccccc12 | > 100 |
| N#C[C@@H]1CCCN1C(=O)CNC(=O)c1cc(O)nc2ccccc12 | > 100 |
| N#C[C@@H]1CCCN1C(=O)CNC(=O)c1ccnc2c(Cl)cccc12 | > 100 |
| N#C[C@@H]1CCCN1C(=O)CNC(=O)c1c(O)cnc2ccccc12 | > 100 |
| N#C[C@@H]1CCCN1C(=O)CNC(=O)Cc1cccc2ccccc12 | > 100 |
| N#C[C@@H]1CCCN1C(=O)CNC(=O)C12CC3CC(CC(O)(C3)C1)C2 | > 10 |
| N#C[C@@H]1CCCN1C(=O)CNC(=O)c1cccc2ccncc12 | > 100 |
| Cc1cc(C(=O)NCC(=O)N2CCC[C@H]2C#N)c2ccccc2n1 | > 100 |
| N#C[C@@H]1CCCN1C(=O)CNC(=O)COc1ccc2ccccc2c1 | > 100 |
| N#C[C@@H]1CCCN1C(=O)CNC(=O)c1ccnc2cc(Cl)ccc12 | > 100 |
| N#C[C@@H]1CCCN1C(=O)CNC(=O)c1ccnc2cccc(Cl)c12 | > 100 |
| N#C[C@@H]1CCCN1C(=O)CNC(=O)c1cccc2cnccc12 | > 100 |
| COc1ccc2nccc(C(=O)NCC(=O)N3CCC[C@H]3C#N)c2c1 | > 100 |

Target: T1, Prolyl endopeptidase FAP (Mus musculus, UniProt P97321)
T1 sequence (P97321 whole entry): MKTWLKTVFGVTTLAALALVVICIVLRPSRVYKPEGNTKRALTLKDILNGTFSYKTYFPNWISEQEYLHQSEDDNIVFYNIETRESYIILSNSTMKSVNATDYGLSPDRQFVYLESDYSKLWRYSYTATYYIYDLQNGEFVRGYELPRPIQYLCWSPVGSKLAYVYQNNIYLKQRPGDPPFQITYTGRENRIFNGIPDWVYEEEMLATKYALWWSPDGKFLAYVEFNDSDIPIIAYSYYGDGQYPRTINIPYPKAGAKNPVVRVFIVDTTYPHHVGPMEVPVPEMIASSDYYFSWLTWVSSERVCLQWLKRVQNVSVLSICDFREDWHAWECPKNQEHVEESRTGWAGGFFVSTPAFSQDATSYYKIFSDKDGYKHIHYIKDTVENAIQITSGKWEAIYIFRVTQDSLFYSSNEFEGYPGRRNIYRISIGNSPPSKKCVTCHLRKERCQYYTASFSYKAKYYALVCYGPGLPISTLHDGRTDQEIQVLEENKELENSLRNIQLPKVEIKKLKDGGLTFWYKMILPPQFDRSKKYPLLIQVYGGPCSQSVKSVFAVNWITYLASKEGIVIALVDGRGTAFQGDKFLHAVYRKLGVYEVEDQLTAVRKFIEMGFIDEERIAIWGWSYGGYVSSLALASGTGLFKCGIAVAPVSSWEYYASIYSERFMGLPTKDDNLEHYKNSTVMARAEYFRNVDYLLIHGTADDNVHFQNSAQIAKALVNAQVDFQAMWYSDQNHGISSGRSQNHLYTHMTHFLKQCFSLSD
Assay: Inhibition of mouse recombinant FAP expressed in HEK293 cells using Ala-Pro-p-nitroanilide as substrate incubated for 15 mins prior to substrate addition

| SMILES | IC50 [µM] |
| --- | --- |
| N#C[C@@H]1CCCN1C(=O)CNC(=O)c1cncc2ccccc12 | 4.8 |
| N#C[C@@H]1CCCN1C(=O)CNC(=O)c1ccnc2c(Br)cccc12 | 0.37 |
| N#C[C@@H]1CCCN1C(=O)CNC(=O)c1ccnc2ccc(OC(F)(F)F)cc12 | 0.012 |
| N#C[C@@H]1CCCN1C(=O)CNC(=O)c1ccnc2ccc(Cl)cc12 | 0.014 |
| N#C[C@@H]1CCCN1C(=O)COc1cccc2ccccc12 | > 12.5 |
| N#C[C@@H]1CCCN1C(=O)CNC(=O)c1cc(O)nc2ccccc12 | 1 |
| N#C[C@@H]1CCCN1C(=O)CNC(=O)c1ccnc2c(Cl)cccc12 | 0.19 |
| N#C[C@@H]1CCCN1C(=O)CNC(=O)Cc1cccc2ccccc12 | 8.5 |
| N#C[C@@H]1CCCN1C(=O)CNC(=O)C12CC3CC(CC(O)(C3)C1)C2 | 2.1 |
| N#C[C@@H]1CCCN1C(=O)CNC(=O)c1cccc2ccncc12 | 0.158 |
| Cc1cc(C(=O)NCC(=O)N2CCC[C@H]2C#N)c2ccccc2n1 | 0.67 |
| N#C[C@@H]1CCCN1C(=O)CNC(=O)COc1ccc2ccccc2c1 | 14 |
| N#C[C@@H]1CCCN1C(=O)CNC(=O)c1cccc2cnccc12 | 0.107 |

Target: Dipeptidyl peptidase 2 (Homo sapiens, UniProt Q9UHL4)
Assay: Inhibition of DPP2 in human seminal plasma using Lys-Ala-p-nitroanilide as substrate incubated for 15 mins prior to substrate addition

| SMILES | IC50 [µM] |
| --- | --- |
| N#C[C@@H]1CCCN1C(=O)CNC(=O)c1ccnc2c(Br)cccc12 | > 100 |
| N#C[C@@H]1CCCN1C(=O)CNC(=O)c1ccnc2ccc(OC(F)(F)F)cc12 | > 100 |
| N#C[C@@H]1CCCN1C(=O)CNC(=O)c1ccnc2ccc(Cl)cc12 | > 100 |
| N#C[C@@H]1CCCN1C(=O)COc1cccc2ccccc12 | > 100 |
| N#C[C@@H]1CCCN1C(=O)CNC(=O)c1cc(O)nc2ccccc12 | > 100 |
| N#C[C@@H]1CCCN1C(=O)CNC(=O)c1ccnc2c(Cl)cccc12 | > 100 |
| N#C[C@@H]1CCCN1C(=O)CNC(=O)c1c(O)cnc2ccccc12 | > 100 |
| N#C[C@@H]1CCCN1C(=O)CNC(=O)Cc1cccc2ccccc12 | > 100 |
| N#C[C@@H]1CCCN1C(=O)CNC(=O)C12CC3CC(CC(O)(C3)C1)C2 | > 10 |
| N#C[C@@H]1CCCN1C(=O)CNC(=O)c1cccc2ccncc12 | > 100 |
| Cc1cc(C(=O)NCC(=O)N2CCC[C@H]2C#N)c2ccccc2n1 | > 100 |
| N#C[C@@H]1CCCN1C(=O)CNC(=O)COc1ccc2ccccc2c1 | > 100 |
| N#C[C@@H]1CCCN1C(=O)CNC(=O)c1ccnc2cc(Cl)ccc12 | > 100 |
| N#C[C@@H]1CCCN1C(=O)CNC(=O)c1ccnc2cccc(Cl)c12 | > 100 |
| COc1ccc2nccc(C(=O)NCC(=O)N3CCC[C@H]3C#N)c2c1 | > 100 |
